From patent publication US6399599B1, “Substituted 2-oxo-1,4-diazacycloalkanes” (Novartis AG, priority 1999, dated 2002)

Test system: allergic contact dermatitis (oxazolone, elicitation phase)
Assay: Allergic contact dermatitis (ACD), oxazolone
Type: in vivo
Conditions: female NMRI mice, 24 h after challenge
Excerpt: ii) Allergic Contact Dermatitis (ACD)
Groups of 8 female NMRI mice are sensitized on the shaved abdomen with 50 —l of oxazolone (Sigma, 2% in acetone) and challenged with 10 —l of 0.2 or 2.0% oxazolone on the inner surface of the right ear 7 days later. The low concentration of oxazolone for induction of the elicitation phase is used for testing compounds on […] whereas the high concentration is applied for […] testing. The unchallenged left ears serve as normal controls and dermatitis is evaluated from the individual differences in pinnal weight, which is taken as a measure of increase in inflammatory swelling 24 h after the challenge. Dermatitis is evaluated in test- and for comparison in control groups. The test groups are treated with the test compounds either orally (twice, 2 h and immediately before challenge), subcutaneously (immediately before challenge) or topically (30 min after challenge at the site of elicitation of the ACD); the controls are treated similarly with the vehicles alone. […] The data of the test-and the vehicle-treated control groups are statistically analysed by ANOVA followed by Dunnet T-test (normal distribution or data) or by H and U-test, respectively. […]

With C[C@@H]1CCN([C@H](Cc2cccc3ccccc23)C(N)=O)C(=O)[C@H](c2ccccc2)N1C(=O)Cc1ccc2ncccc2c1 [Example 3, (R)-2-[(3S,5R)-5Methyl-2-oxo-3-phenyl-4-(quinolin-6-yl-acetyl)-[1,4]diazepan-1-yl]-3-(naphthalen-1-yl)-propionamide] the “inhibiting effect in allergic contact dermatitis (pinnal weight)” value (applied topically at a dose of 10 mM) was 50% and the “inhibiting effect in allergic contact dermatitis (pinnal weight)” value (p.o. at a dose of 2×3 mg/kg) was 40%.
